In ChEMBL document CHEMBL1201862, “PubChem BioAssay data set” (2004):
The source made the active and inactive calls.

What was measured:
[1] = Luminescence Cell-Based Dose Retest to Confirm Inhibitors of Cancer Stem Cells. [Related pubchem assays (depositor defined):AID2717, AID2721]; format: functional; conditions: Homo sapiens
[2] = target: T1, Streptokinase A (Streptococcus pyogenes serotype M1, UniProt P10520); test: viability-normalized secreted streptokinase activity reduction – plasminogen activation absorbance, OD405, dose response (AID 1914); format: functional, Streptococcus pyogenes M1 GAS;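 further: secreted streptokinase activity via plasminogen activation per viability signal from cell pellet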
T1 sequence (P10520 whole entry): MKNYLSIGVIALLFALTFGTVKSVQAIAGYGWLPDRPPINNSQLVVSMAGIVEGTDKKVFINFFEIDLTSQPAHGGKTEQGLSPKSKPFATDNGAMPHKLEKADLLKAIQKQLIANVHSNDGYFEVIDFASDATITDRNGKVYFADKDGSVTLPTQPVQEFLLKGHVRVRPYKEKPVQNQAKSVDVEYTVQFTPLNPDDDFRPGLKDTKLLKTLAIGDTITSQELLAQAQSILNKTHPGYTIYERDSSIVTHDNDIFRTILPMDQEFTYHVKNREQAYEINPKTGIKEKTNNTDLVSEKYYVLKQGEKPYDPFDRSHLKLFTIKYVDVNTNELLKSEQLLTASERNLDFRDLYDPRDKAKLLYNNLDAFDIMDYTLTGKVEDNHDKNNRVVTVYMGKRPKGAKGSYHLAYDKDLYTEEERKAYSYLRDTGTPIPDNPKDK

[3] = system: Streptococcus sp. 'group A'; test: Streptococcus pyogenes SK(-)GAS viability under kanamycin – luminescence, BacTiterGlo, confirmation, counter-screen for streptokinase expression inhibitor project, dose response (AID 1900); format: functional, organism-based
[4] = system: Streptococcus; test: GAS UMAA2166 growth inhibition – luminescence, BacTiterGlo, counter-screen for streptokinase expression inhibitor project, dose response (AID 1915); format: functional, organism-based;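 further: potency for reduction of bacterial viability or growth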
[5] = target: T2, Cytochrome P450 1A2 (Homo sapiens, UniProt P05177);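 further: PubChem cytochrome P450 panel assay, CYP1A2 panel member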
T2 sequence (P05177 whole entry): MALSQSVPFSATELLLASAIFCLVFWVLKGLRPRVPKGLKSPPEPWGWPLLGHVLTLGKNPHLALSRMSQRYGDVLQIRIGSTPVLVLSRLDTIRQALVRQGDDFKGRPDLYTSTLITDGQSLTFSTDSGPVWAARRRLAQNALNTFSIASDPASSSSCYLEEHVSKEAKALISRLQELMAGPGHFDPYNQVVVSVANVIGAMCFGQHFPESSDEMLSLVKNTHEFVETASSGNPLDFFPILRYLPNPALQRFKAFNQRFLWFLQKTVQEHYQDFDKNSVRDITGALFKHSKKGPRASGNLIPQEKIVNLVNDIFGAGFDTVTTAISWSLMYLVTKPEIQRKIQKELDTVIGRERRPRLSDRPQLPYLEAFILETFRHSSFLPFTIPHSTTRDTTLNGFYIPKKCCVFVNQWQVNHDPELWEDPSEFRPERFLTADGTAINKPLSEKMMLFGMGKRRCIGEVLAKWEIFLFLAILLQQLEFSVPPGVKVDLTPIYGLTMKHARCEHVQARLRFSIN

[6] = target: Cytochrome P450 2C9 (Homo sapiens, UniProt P11712)
[7] = target: T3, Heat shock factor protein 1 (Mus musculus, UniProt P38532); test: decrease of HSF1-responsive luciferase luminescence – cell-based, NIH3T3, dose retest, confirmation (AID 2382); format: functional;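 further: NIH3T3 fibroblasts with HSF1-driven luciferase reporter stressed by proteasome inhibitor MG132; luminescence from HSF1-driven luciferase expression after 8 hours of MG132 stress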
T3 sequence (P38532 whole entry): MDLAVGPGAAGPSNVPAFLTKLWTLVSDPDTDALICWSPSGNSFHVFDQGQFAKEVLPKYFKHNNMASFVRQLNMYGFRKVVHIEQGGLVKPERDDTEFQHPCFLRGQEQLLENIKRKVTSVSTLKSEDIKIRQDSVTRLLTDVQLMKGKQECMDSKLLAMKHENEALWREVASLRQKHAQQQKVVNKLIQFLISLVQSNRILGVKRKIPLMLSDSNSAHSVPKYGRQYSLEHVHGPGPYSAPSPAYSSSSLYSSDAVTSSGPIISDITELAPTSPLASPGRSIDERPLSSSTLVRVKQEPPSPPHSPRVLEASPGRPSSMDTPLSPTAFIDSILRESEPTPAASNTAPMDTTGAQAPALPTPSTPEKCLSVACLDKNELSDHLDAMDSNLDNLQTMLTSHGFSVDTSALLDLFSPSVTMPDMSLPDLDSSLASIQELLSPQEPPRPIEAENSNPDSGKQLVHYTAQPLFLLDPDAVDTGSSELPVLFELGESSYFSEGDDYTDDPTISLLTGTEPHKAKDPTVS

[8] = target: Cytochrome P450 2C19 (Homo sapiens, UniProt P33261); test: Cytochrome panel assay with activity outcomes. Panel member name: p450-cyp2c19 Compounds with AC50 equal or less than 10 uM are considered active; format: functional; conditions: read-out: AC50
[9] = system: H4; test: Luminescence Cell-Based Dose Response HTS to Identify Activators of 5'UTR Stem-Loop Driven Prion Protein mRNA Translation in H4 Neuroglioblastoma Cells. [Related pubchem assays: 1829 (Project Summary), 1814 (Primary HTS)]; format: functional; conditions: Homo sapiens
[10] = Luminescence Cell-Based Dose Response HTS to Identify Activators of Luciferase Translation or Activity in H4 […] Cells. [Related pubchem assays: 1829 (Project Summary), 1814 (Primary HTS)]; format: functional

Sequence of Cytochrome P450 2C9 (P11712 whole entry): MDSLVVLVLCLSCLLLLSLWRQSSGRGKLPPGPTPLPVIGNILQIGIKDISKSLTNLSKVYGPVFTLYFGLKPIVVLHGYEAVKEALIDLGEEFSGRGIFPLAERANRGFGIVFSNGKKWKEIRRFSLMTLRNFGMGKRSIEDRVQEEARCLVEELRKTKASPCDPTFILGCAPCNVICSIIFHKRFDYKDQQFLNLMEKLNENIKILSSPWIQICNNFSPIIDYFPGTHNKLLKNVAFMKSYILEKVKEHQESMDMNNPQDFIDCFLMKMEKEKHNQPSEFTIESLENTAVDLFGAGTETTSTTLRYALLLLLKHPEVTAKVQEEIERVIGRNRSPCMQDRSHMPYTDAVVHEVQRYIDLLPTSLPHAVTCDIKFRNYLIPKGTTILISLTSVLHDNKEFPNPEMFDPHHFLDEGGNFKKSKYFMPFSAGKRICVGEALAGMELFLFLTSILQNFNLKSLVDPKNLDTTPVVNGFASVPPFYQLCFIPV
Sequence of Cytochrome P450 2C19 (P33261 whole entry): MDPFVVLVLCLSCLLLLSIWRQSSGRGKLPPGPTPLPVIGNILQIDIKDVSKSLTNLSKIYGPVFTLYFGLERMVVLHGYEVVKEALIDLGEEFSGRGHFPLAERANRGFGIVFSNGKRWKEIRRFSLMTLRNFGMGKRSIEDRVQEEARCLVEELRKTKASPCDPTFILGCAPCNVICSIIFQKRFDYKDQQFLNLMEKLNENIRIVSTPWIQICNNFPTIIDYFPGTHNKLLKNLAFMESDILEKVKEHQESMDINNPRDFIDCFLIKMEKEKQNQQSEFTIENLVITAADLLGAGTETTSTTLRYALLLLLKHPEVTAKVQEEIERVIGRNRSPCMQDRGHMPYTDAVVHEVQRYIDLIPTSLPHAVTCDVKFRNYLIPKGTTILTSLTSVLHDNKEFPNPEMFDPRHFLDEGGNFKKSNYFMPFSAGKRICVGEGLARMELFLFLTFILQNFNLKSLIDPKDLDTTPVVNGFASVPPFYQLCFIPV

SMILES: O=S(=O)(Nc1ccc(-c2nnc(SCc3ccc(Cl)cc3)o2)cc1)c1ccccc1
- AC50 [1]: 3.31 µM (active)

SMILES: Cc1cc2occ(CC(=O)NC3=NCCS3)c2cc1C(C)C
- EC50 [2]: > 150 µM (not active)
- EC50 [3]: 71.7 µM (active)
- EC50 [4]: > 150 µM (not active)

SMILES: CN1CCc2ccccc2[C@@H]1Cc1ccccc1NC(=O)c1sc2ccccc2c1Cl
- AC50 [5]: 5.01 µM (inconclusive)
- AC50 [6]: 3.16 µM (inconclusive)

SMILES: NNC(=O)CNC(=O)CNS(=O)(=O)c1ccccc1
- EC50 [7]: > 195 µM (not active)

SMILES: O=S(=O)(c1ccccc1)c1c[nH]c(O)n1
- EC50 [7]: > 195 µM (not active)

SMILES: COC(=O)c1c(NC(=O)c2ccc(C)c(S(=O)(=O)Nc3ccccc3C)c2)sc2c1CCCC2
- AC50 [1]: 0.875 µM (active)

SMILES: Cc1ccc(C2=NCCn3c2c2ccc(C(F)(F)F)cc2[n+]3[O-])cc1
- EC50 [7]: > 195 µM (not active)

SMILES: Nc1ccc(-c2ccc(N)cc2C(F)(F)F)c(C(F)(F)F)c1
- EC50 [2]: 76.8 µM (active)
- EC50 [3]: 31 µM (active)
- EC50 [4]: > 150 µM (not active)

SMILES: CN(C)C(=O)c1ccc(-c2nc(Nc3ccncc3)c3ccccc3n2)cc1
- AC50 [8]: 39.8 µM (inconclusive)

SMILES: O=C(COc1ccccc1)Nc1cccc(-c2nc3ccccc3[nH]2)c1
- EC50 [2]: > 150 µM (not active)
- EC50 [3]: 22.7 µM (active)
- EC50 [4]: > 150 µM (not active)

SMILES: COc1ccc(/C=N/Nc2nc(C)cc(O)n2)cc1OC
- EC50 [7]: 29.8 µM (active)

SMILES: CC(=O)NC1=NN(C(C)=O)C(c2ccccn2)S1 (configuration not stated)
- EC50 [7]: > 195 µM (not active)

SMILES: Cc1ccc(C2N(c3ccccc3)C(=S)N3CCCN23)cc1 (configuration not stated)
- EC50 [7]: > 195 µM (not active)

SMILES: CCOc1c2ccc(C(=O)NCCc3cccs3)cc2nn1CC
- EC50 [9]: > 120 µM (not active)
- EC50 [10]: 1.51 µM (active)
- AC50 [6]: 28.2 µM (inconclusive)
- AC50 [8]: 4.47 µM (inconclusive)

SMILES: COc1ccc(NC(=O)N2CCCC3(CCN(C(=O)Oc4ccccc4)CC3)C2)cc1
- AC50 [6]: 1.58 µM (inconclusive)

SMILES: COc1ccccc1NC(=O)NCCCCc1ccccc1
- EC50 [2]: > 150 µM (not active)
- EC50 [3]: > 150 µM (not active)
- EC50 [4]: > 150 µM (not active)

SMILES: Cc1ccc(C)c(-c2csc(N)c2C(=O)OC(C)C)c1
- EC50 [2]: 17 µM (active)
- EC50 [3]: 9.04 µM (active)
- AC50 [1]: 6.66 µM (active)
- EC50 [4]: > 150 µM (not active)

SMILES: CC(C)(C)c1ccc(Cn2nnc3c(O)nc(C4CCCN(C(=O)c5cccs5)C4)nc32)cc1 (configuration not stated)
- AC50 [1]: 10.6 µM (active)

SMILES: COc1ccc(-n2c(=O)c(-c3cc(F)cc(F)c3)nc3cncnc32)cc1
- AC50 [8]: 10 µM (inconclusive)

SMILES: COc1ccc(-n2c(=O)c(C)nc3cncnc32)cc1
- AC50 [6]: 39.8 µM (inconclusive)

SMILES: O=C(Cc1ccccc1F)Nc1ccc(S(=O)(=O)N2CCCCC2)cc1
- EC50 [7]: > 195 µM (not active)

SMILES: COCCNC(=O)CN(C(=O)CCC(=O)Nc1ccccn1)c1ccc(C)cc1
- AC50 [1]: > 195 µM (inactive)

SMILES: CC(C)(C)c1ccc(C(=O)NCc2nnc(SCC(=O)NC3CCCC3)o2)cc1
- EC50 [2]: > 150 µM (inconclusive)
- EC50 [3]: > 150 µM (not active)
- EC50 [4]: > 150 µM (not active)

SMILES: O=c1n(-c2ccc(Br)cc2)cnn1-c1ncccc1[N+](=O)[O-]
- EC50 [9]: 17.3 µM (active)
- EC50 [10]: 2.9 µM (active)
